Experimental data taken from the Deep4Chem optical property database.
Blank lines part the entries; values can stand above or below the compound they belong to.

Test: solvent given as SMILES

absorption maximum (in ClCCl): 538 nm
SMILES: CC1=C(c2ccc(N(C)C)cc2)C(C)=[N+]2C1=C(c1c(-c3ccccn3)nc3ccccn13)c1c(C)cc(C)n1[B-]2(F)F

absorption maximum (in CCCCCC): 644 nm
SMILES: CC(C)[Si](C#Cc1c2cc3ccccc3cc2c(C#C[Si](C(C)C)(C(C)C)C(C)C)c2nc3c(ccc4cc5ccccc5cc43)nc12)(C(C)C)C(C)C

absorption maximum (in C1CCOC1): 400 nm
SMILES: COC(=O)c1cc2c(cc3ccc4cccc5ccc2c3c45)[nH]1

absorption maximum (in ClCCl): 323 nm
SMILES: CCOC(=O)c1c(-c2cc3ccccc3oc2=O)nn(-c2ccc(OC)cc2)c1C(=O)OCC

absorption maximum (in C1CCCCC1): 581.5 nm | absorption maximum (in CCOC(C)=O): 576.5 nm | absorption maximum (in CO): 574.5 nm
SMILES: Cc1ccccc1C1=C2C=c3c(oc4ccc(F)cc34)=[N+]2[B-](F)(F)n2c1cc1c3cc(F)ccc3oc12

absorption maximum (in ClC(Cl)Cl): 406 nm
SMILES: COc1ccc(C2CC(=O)Oc3c2c2nc4ccccc4nc2c2ccccc32)cc1 (stereo not drawn)

absorption maximum (in ClCCl): 474 nm
SMILES: CCCCN(CCCC)c1ccc2c(c1)C#CC#Cc1cc(C(F)(F)F)ccc1C#Cc1cc(c3cc1C#Cc1ccc(C(F)(F)F)cc1C#CC#Cc1cc(N(CCCC)CCCC)ccc1C#C3)C#C2

absorption maximum (in CC#N): 375 nm
SMILES: Cc1cc2nc3c(=O)n(C)c(=O)n(C)c3nc2cc1C

absorption maximum (in ClC(Cl)Cl): 429 nm
SMILES: Cc1cccc(C2=Cc3ccc4ccccc4[n+]3[B-](F)(F)O2)c1

absorption maximum (in ClCCl): 395 nm
SMILES: CC(C)(C)NC(=O)c1ccc(C(=O)NC(C)(C)C)c2c1c1c3ccc(Cl)cc3c3cc(Cl)ccc3c1c1c3ccc(Cl)cc3c3cc(Cl)ccc3c21

absorption maximum (in C1CCOC1): 487 nm
SMILES: CCCCCOc1cc2oc(=O)c3c4ccc(N(c5ccc(C)cc5)c5ccc(C)cc5)cc4c4ccc5cccc6c(c1)c2c3c4c56

absorption maximum (in ClCCl): 300 nm
SMILES: Cc1cc2ccccc2c2c1c1ccccc1n2C

absorption maximum (in CN(C)C=O): 330 nm
SMILES: Cc1cc(-c2ccc(-c3nc4ccccc4[nH]3)cc2)ccc1-c1ccc(-c2nc3ccccc3[nH]2)cc1

absorption maximum (in C1CCOC1): 379.46 nm
SMILES: CC(C)(C)c1ccc(-c2nc(-c3ccc(C(C)(C)C)cc3)nc(-c3ccc(-n4c5ccccc5c5c6oc7ccccc7c6ccc54)c(C#N)c3)n2)cc1

absorption maximum (in ClC(Cl)Cl): 516 nm
SMILES: CC1=CC(C)=[N+]2C1=C(C1=C(C)C3=C(C)c4c(C)cc(C)n4[B-](F)(F)[N+]3=C1C)c1c(C)cc(C)n1[B-]2(F)F

absorption maximum (in CO): 405 nm
SMILES: COc1ccc2c(c1)SC1=Nc3sc4cc(OC)ccc4[n+]3CN12

absorption maximum (in CC#N): 340 nm | absorption maximum (in CCCCCC): 337 nm | absorption maximum (in CCO): 343 nm | absorption maximum (in CCOC(C)=O): 340 nm | absorption maximum (in CO): 343 nm | absorption maximum (in OCC(F)(F)F): 344 nm
SMILES: COc1ccc2cc3c(C)cc(=O)oc3cc2c1

absorption maximum (in C1CCOC1): 362 nm | absorption maximum (in C1COCCO1): 366 nm | absorption maximum (in CC#N): 364 nm | absorption maximum (in CCCCCC): 360 nm | absorption maximum (in CCO): 370 nm | absorption maximum (in CN(C)C=O): 375 nm | absorption maximum (in CO): 371 nm | absorption maximum (in CS(C)=O): 379 nm | absorption maximum (in ClC(Cl)Cl): 368 nm | absorption maximum (in ClCCl): 365 nm
SMILES: COc1ccc2c(c1)CCc1c-2nc(N)c(C#N)c1-c1ccc(Br)cc1

absorption maximum (in CCO): 678 nm
SMILES: CCN(C(C)=O)c1cc2c(cc1C)C(c1ccccc1C(=O)O)=C1CCCC(/C=C/C3=[N+](C)c4ccc5ccccc5c4C3(C)C)=C1O2

The next lines start with the compound.

SMILES: Cc1ccc(-c2cc(-c3ccccc3)c(C#N)c(=S)[nH]2)cc1
absorption maximum (in C1CCCCC1): 488 nm | absorption maximum (in C1COCCO1): 442 nm | absorption maximum (in CC#N): 430 nm | absorption maximum (in CCOCC): 440 nm | absorption maximum (in CN(C)C=O): 438 nm | absorption maximum (in ClC(Cl)(Cl)Cl): 446 nm

SMILES: COc1ccc(-c2ccc(-c3ccc(OC)cc3)c3nc(-c4ccccc4)c(-c4ccccc4)nc23)cc1
absorption maximum (in ClC(Cl)Cl): 366 nm

SMILES: c1ccc(/C(=C(\c2ccccc2)c2ccccc2-c2ccc(-c3ccccc3)cc2)c2ccccc2-c2ccc(-c3ccccc3)cc2)cc1
absorption maximum (in C1CCOC1): 280 nm

SMILES: COc1ccc(-c2cnc(-c3ccccc3)o2)cc1OC
absorption maximum (in ClCCl): 322 nm

SMILES: CCCCC(CC)CN1C(=O)c2cc(Oc3ccc(C(C)(C)C)cc3)c3c4c(Cl)cc5c6c(cc(Cl)c(c7c(Oc8ccc(C(C)(C)C)cc8)cc(c2c37)C1=O)c64)C(=O)N(c1c(C(C)C)cccc1C(C)C)C5=O (stereo not drawn)
absorption maximum (in Cc1ccccc1): 560 nm

SMILES: CCOC(=O)CSc1nc2c(c(C#N)c1C#N)CCCCCC2
absorption maximum (in c1ccccc1): 360 nm

SMILES: COC(=O)C1(C(=O)OC)Cc2c(C#Cc3ccccc3)c(-c3ccccc3)c3c(-c4ccccc4)c(-c4ccccc4)c(-c4ccccc4)c(-c4ccccc4)c3c2C1
absorption maximum (in C1CCOC1): 339.52 nm

SMILES: CC1(C)c2ccccc2N(c2ccc(-c3nc(-c4ccccn4)n(-c4ccccc4)n3)cc2)c2ccccc21
absorption maximum (in ClCCl): 342 nm

SMILES: COc1cc2c(cc1/C=C/C1=CC(=C(C#N)C#N)CC(C)(C)C1)c1ccccc1n2C
absorption maximum (in C1CCOC1): 475 nm | absorption maximum (in CC#N): 477 nm | absorption maximum (in CCO): 479 nm | absorption maximum (in CCOC(C)=O): 462 nm | absorption maximum (in CN(C)C=O): 484 nm | absorption maximum (in CS(C)=O): 489 nm | absorption maximum (in Cc1ccccc1): 468 nm | absorption maximum (in ClC(Cl)Cl): 485 nm | absorption maximum (in ClCCl): 478 nm

SMILES: O=C1c2ccccc2-c2nc3ccccc3n21
absorption maximum (in ClCCl): 340 nm

SMILES: CCCC1(CCC)c2cc(-c3ccccc3)ccc2-c2ccc(-c3ccc4c(c3)C(CCC)(CCC)c3cc(-c5ccccc5)ccc3-4)cc21
absorption maximum (in C1CCCCC1): 346 nm

SMILES: CC(C)(C)c1ccc2c(c1)c1cc(C(C)(C)C)ccc1n2-c1ccc(N(c2ccc(-c3ccc(N(c4ccc(-n5c6ccc(C(C)(C)C)cc6c6cc(C(C)(C)C)ccc65)cc4)c4ccc(-n5c6ccc(C(C)(C)C)cc6c6cc(C(C)(C)C)ccc65)cc4)cc3)cc2)c2ccc(-n3c4ccc(C(C)(C)C)cc4c4cc(C(C)(C)C)ccc43)cc2)cc1
absorption maximum (in ClCCl): 349 nm

SMILES: N#Cc1c(-n2c3ccccc3c3ccccc32)c(-n2c3ccccc3c3ccccc32)c(-n2c3ccccc3c3ccccc32)c(-n2c3ccccc3c3ccccc32)c1-n1c2ccccc2c2ccccc21
absorption maximum (in Cc1ccccc1): 402.99 nm

SMILES: CCCCCCCCCCOc1ccc(C#Cc2cc3c(C#Cc4ccc(OCCCCCCCCCC)cc4)c(C#Cc4ccc(OCCCCCCCCCC)cc4)c4cc(C#Cc5ccc(OCCCCCCCCCC)cc5)cc5c(C#Cc6ccc(OCCCCCCCCCC)cc6)c(C#Cc6ccc(OCCCCCCCCCC)cc6)c(c2)c3c45)cc1
absorption maximum (in ClCCl): 421 nm

SMILES: CC(C)(C)c1ccc2c(c1)c1cc(C(C)(C)C)ccc1n2-c1ccc(C(=O)c2ccc(-n3c4ccc(C(C)(C)C)cc4c4cc(C(C)(C)C)ccc43)nc2)cn1
absorption maximum (in C1CCOC1): 377.31 nm | absorption maximum (in Cc1ccccc1): 383.97 nm | absorption maximum (in ClCCl): 382.72 nm

SMILES: Cc1ccc(/C=C/c2ccccc2-[n+]2noc([O-])c2-c2ccccc2)cc1
absorption maximum (in C1CCCCC1): 316 nm | absorption maximum (in CC#N): 313 nm | absorption maximum (in CCO): 315 nm

SMILES: COc1ccc(-c2c3ccccc3c(-c3ccc(OC)cc3)c3cc4ccccc4cc23)cc1
absorption maximum (in ClCCl): 495 nm

SMILES: COC(=O)[C@@H]1C(=O)Oc2ccccc2[C@H]1c1c[nH]c2ccccc12
absorption maximum (in CS(C)=O): 284 nm

SMILES: CN1CCN(c2cccc(/C=C/c3ncc(-c4ccc(OCc5ccccc5)c(OCc5ccccc5)c4)o3)c2)CC1
absorption maximum (in ClCCl): 354 nm

SMILES: N#Cc1nc2c(nc1C#N)C1c3ccc(N(c4ccccc4)c4ccccc4)cc3C2c2ccc(N(c3ccccc3)c3ccccc3)cc21
absorption maximum (in C1CCCCC1): 408 nm | absorption maximum (in CC#N): 378 nm | absorption maximum (in Cc1ccccc1): 391 nm | absorption maximum (in ClCCl): 409 nm

SMILES: COc1ccc(-c2csc(/C(C#N)=C\Nc3ccc(C#N)cc3)n2)cc1
absorption maximum (in CC#N): 376 nm | absorption maximum (in CCO): 378 nm | absorption maximum (in CN(C)C=O): 380 nm | absorption maximum (in Cc1ccccc1): 381 nm | absorption maximum (in ClCCl): 379 nm

SMILES: c1ccc(N(c2ccccc2)c2ccc3c4cccc5c(N(c6ccccc6)c6ccccc6)ccc(c6cccc2c63)c54)cc1
absorption maximum (in C1CCCCC1): 493 nm | absorption maximum (in C1CCOC1): 489 nm | absorption maximum (in CC#N): 483 nm | absorption maximum (in Cc1ccccc1): 492 nm | absorption maximum (in ClCCl): 490 nm

SMILES: c1ccc(-c2c3ccccc3c(-c3ccccc3)c3cc4ccccc4cc23)cc1
absorption maximum (in ClCCl): 493 nm

SMILES: COc1c(C(C)=O)c(=O)oc2cc(N(C)C)ccc12
absorption maximum (in ClCCl): 373 nm

SMILES: CC(C)(C)c1ccc(Oc2cc3c4c(cc(Oc5ccc(C(C)(C)C)cc5)c5c6c(Oc7ccc(C(C)(C)C)cc7)cc7c8c(cc(Oc9ccc(C(C)(C)C)cc9)c(c2c45)c86)C(=O)OC7=O)C(=O)OC3=O)cc1
absorption maximum (in ClC(Cl)Cl): 581 nm

SMILES: [O-][n+]1c(/C=C/C=C/c2ccccc2)nc(N2CCOCC2)c2c1CCCC2
absorption maximum (in ClCCl): 400 nm

SMILES: Cc1nc(-c2ccccc2)c2ccccn12
absorption maximum (in C1CCCCC1): 374 nm | absorption maximum (in CC#N): 364 nm | absorption maximum (in CO): 354 nm | absorption maximum (in ClCCl): 367 nm | absorption maximum (in O): 338 nm

SMILES: Fc1ccc(C#Cc2nc(C#Cc3ccc(F)cc3)c(C#Cc3ccc(F)cc3)c(C#Cc3ccc(F)cc3)c2C#Cc2ccc(F)cc2)cc1
absorption maximum (in ClCCl): 407 nm

SMILES: CC(=O)[B-]1(C(C)=O)OC(c2ccc3ccccc3c2)=CC(c2ccc3ccccc3c2)=[O+]1
absorption maximum (in CC#N): 420 nm | absorption maximum (in ClC(Cl)(Cl)Cl): 415 nm

SMILES: O=P1(c2ccccc2)c2ccc(N3c4ccccc4Sc4ccccc43)cc2-c2cc(N3c4ccccc4Sc4ccccc43)ccc21
absorption maximum (in Cc1ccccc1): 422 nm

SMILES: Fc1ccc(-c2nc3n(c2-c2ccncc2)CCS3)cc1
absorption maximum (in C1CCCCC1): 328 nm | absorption maximum (in C1CCOC1): 328.5 nm | absorption maximum (in C1COCCO1): 328.5 nm | absorption maximum (in CC#N): 319 nm | absorption maximum (in CC(C)(C)O): 329.5 nm | absorption maximum (in CC(C)O): 328 nm | absorption maximum (in CCO): 325 nm | absorption maximum (in CCOC(C)=O): 319 nm | absorption maximum (in CN(C)C=O): 326.5 nm | absorption maximum (in CNC=O): 325.5 nm | absorption maximum (in CO): 322.5 nm | absorption maximum (in CS(C)=O): 329 nm | absorption maximum (in Cc1ccc(C)cc1): 332 nm | absorption maximum (in Cc1ccccc1): 333.5 nm | absorption maximum (in ClC(Cl)Cl): 329 nm | absorption maximum (in ClCCl): 326 nm | absorption maximum (in O): 322 nm | absorption maximum (in OCCO): 330 nm

SMILES: CC(C)c1cccc(C(C)C)c1-n1c(=O)c2cc3nc(-c4ccccc4)c4cc5c(=O)n(-c6c(C(C)C)cccc6C(C)C)c(=O)c6cc7c(-c8ccccc8)nc8cc(c1=O)c2c1c3c4c(c56)c7c81
absorption maximum (in ClC(Cl)Cl): 480 nm

SMILES: COC(=O)c1ccc(/N=N/c2cc3c4c(c2)CCCN4CCC3)cc1
absorption maximum (in CCOC(C)=O): 474 nm
